Twelve compounds from PubChem BioAssay (NCI) can be followed below.

Test systems include HCT-116 colon; SF-295 CNS; M14 melanoma; UO-31 renal; DU-145 prostate; UACC-257 melanoma; OVCAR-8 ovarian; HCT-15 colon; SN12C renal; OVCAR-4 ovarian; LOX IMVI melanoma; NCI-H226 lung.
Holding throughout (assay): NCI-60 cell line screen, 48 h

SMILES strings stand for the structures.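 All cell lines were grown in 96-well plates and treated with compound for 48 hours. Here, GI50 denotes the concentration required for 50% inhibition of growth. TGI is the concentration that stops growth completely.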

Consider `Clc1ccc2c(NCCNc3nc(-c4ccccc4)cc(-c4ccccc4)n3)ccnc2c1`, for which the GI50 in the assay on HCT-116 colon was 1.76 µM; in the assay with SF-295 CNS, 1.76 µM; with M14 melanoma, 1.71 µM; in the assay on UO-31 renal it was 1.54 µM; in the assay with DU-145 prostate, 1.79 µM; with UACC-257 melanoma it was 2.03 µM. Besides, the GI50 with OVCAR-8 ovarian was 2.07 µM. Also, the TGI amounted to 3.43 µM in the assay with HCT-116 colon; 3.39 µM in the assay with SF-295 CNS; 3.16 µM in the assay on M14 melanoma; 3.01 µM in the assay with UO-31 renal; 3.45 µM in the assay on DU-145 prostate; 3.98 µM with UACC-257 melanoma. The compound further had a TGI with OVCAR-8 ovarian of 4.3 µM.
Take `COc1ccc(OC)c(C2CCc3cnc4nc(N)nc(N)c4c3C2)c1` (stereo not drawn): the TGI with HCT-15 colon was more than 100 µM; with HCT-116 colon it was more than 100 µM; in the assay on SN12C renal, more than 100 µM; in the assay with SF-295 CNS, more than 100 µM; with M14 melanoma, more than 100 µM; in the assay on UO-31 renal it was 85.3 µM. The TGI in the assay on DU-145 prostate, with OVCAR-4 ovarian, in the assay with UACC-257 melanoma, in the assay with LOX IMVI melanoma and with OVCAR-8 ovarian was more than 100 µM in each case.
In the case of `C(/COc1cccnc1)=N\NC1=NCCN1`, the TGI in the assay on HCT-15 colon, in the assay on HCT-116 colon, in the assay on SN12C renal, with SF-295 CNS, in the assay with M14 melanoma and with UO-31 renal was more than 100 µM in each case. The TGI with OVCAR-4 ovarian, in the assay on UACC-257 melanoma, in the assay with LOX IMVI melanoma, with OVCAR-8 ovarian and in the assay with NCI-H226 lung was more than 100 µM each time.
`CCC(C)(C)NC1=C(NC(C)=O)C(=O)c2ccccc2C1=O`: the TGI in the assay on HCT-15 colon, in the assay with HCT-116 colon, in the assay on SN12C renal, with SF-295 CNS, in the assay with M14 melanoma and with UO-31 renal was more than 75 µM throughout. The TGI in the assay with OVCAR-4 ovarian is more than 75 µM; in the assay on UACC-257 melanoma, 70.7 µM; in the assay on LOX IMVI melanoma, more than 75 µM; in the assay on OVCAR-8 ovarian, more than 75 µM; in the assay on NCI-H226 lung it was more than 75 µM.
For `CC(C)(C)OC(=O)C(C1NC(C(=O)O)C(C)(C)S1)N1C(=O)c2ccccc2C1=O` (stereo not drawn), the TGI in the assay with HCT-15 colon, with HCT-116 colon, in the assay on SN12C renal, in the assay with SF-295 CNS, with M14 melanoma and in the assay with UO-31 renal was more than 100 µM throughout. In addition, the TGI in the assay on DU-145 prostate, in the assay on OVCAR-4 ovarian, with UACC-257 melanoma, with LOX IMVI melanoma and in the assay with OVCAR-8 ovarian was more than 100 µM in each case.
Consider `CCNC1CC(C(C)(C)NCC)CC=C1C` (stereo not drawn), for which the TGI in the assay with HCT-15 colon, in the assay on HCT-116 colon, in the assay with SN12C renal, in the assay with SF-295 CNS, with M14 melanoma and with UO-31 renal was more than 100 µM throughout. The TGI with DU-145 prostate, with OVCAR-4 ovarian, in the assay on UACC-257 melanoma, in the assay with LOX IMVI melanoma and with OVCAR-8 ovarian was more than 100 µM in each case.
In the case of `Cc1[nH]n(-c2ccccc2)c(=S)c1C(=O)c1ccccc1`, the TGI with HCT-15 colon is more than 100 µM; in the assay on SN12C renal it was 45.1 µM; in the assay on SF-295 CNS, more than 100 µM; in the assay on M14 melanoma, 93.7 µM; with UO-31 renal it was more than 100 µM; with OVCAR-4 ovarian, more than 100 µM. The TGI in the assay on UACC-257 melanoma, in the assay with LOX IMVI melanoma and in the assay on OVCAR-8 ovarian was more than 100 µM each time.
Regarding `Cc1c(-c2ccccc2)n(C)c2cn[nH]c(=O)c12`, the TGI in the assay on HCT-15 colon was more than 100 µM; in the assay on HCT-116 colon it was more than 100 µM; with SF-295 CNS, 65.1 µM; in the assay on M14 melanoma, more than 100 µM; with UO-31 renal, more than 100 µM; with DU-145 prostate, more than 100 µM. Moreover, the TGI in the assay with UACC-257 melanoma was more than 100 µM; in the assay with LOX IMVI melanoma it was 38.3 µM; in the assay with OVCAR-8 ovarian, more than 100 µM.
With `Cn1cc(-c2ccc(CCOC3CCCCO3)cc2)c2c(C#N)cccc21` (stereo not drawn), the TGI with HCT-15 colon, in the assay on HCT-116 colon, with SN12C renal, with SF-295 CNS, with M14 melanoma and in the assay with UO-31 renal was more than 100 µM each time. Moreover, the TGI in the assay with DU-145 prostate, in the assay with OVCAR-4 ovarian, with UACC-257 melanoma, in the assay on LOX IMVI melanoma and in the assay with OVCAR-8 ovarian was more than 100 µM throughout.
For `CC(C)(C)OC(=O)C1/C(=C/CO)CN1C(=O)OC(C)(C)C` (stereo not drawn), the TGI with HCT-15 colon, in the assay on HCT-116 colon, in the assay with SN12C renal, with SF-295 CNS, in the assay with M14 melanoma and in the assay with UO-31 renal was more than 100 µM throughout. In addition, the TGI with OVCAR-4 ovarian, in the assay on UACC-257 melanoma, in the assay on LOX IMVI melanoma and in the assay on OVCAR-8 ovarian was more than 100 µM throughout.
As for `c1ccc2cc3n[se]nc3cc2c1`, the TGI in the assay on HCT-15 colon, with SN12C renal, in the assay on SF-295 CNS, in the assay on M14 melanoma, in the assay with UO-31 renal and with OVCAR-4 ovarian was more than 100 µM throughout. The TGI in the assay on UACC-257 melanoma, in the assay with LOX IMVI melanoma and with OVCAR-8 ovarian was more than 100 µM in each case.
As for `COC(=O)C(Cc1ccccc1)NS(=O)(=O)c1ccc(-c2c3nc(c(-c4ccc(S(=O)(=O)NC(Cc5ccccc5)C(=O)OC)cc4)c4ccc([nH]4)c(-c4ccc(S(=O)(=O)NC(Cc5ccccc5)C(=O)OC)cc4)c4nc(c(-c5ccc(S(=O)(=O)NC(Cc6ccccc6)C(=O)OC)cc5)c5ccc2[nH]5)C=C4)C=C3)cc1` (stereo not drawn), the TGI in the assay on HCT-15 colon, in the assay on HCT-116 colon, with SN12C renal, in the assay on SF-295 CNS, in the assay with M14 melanoma and with UO-31 renal was more than 100 µM each time. The TGI with DU-145 prostate, in the assay on OVCAR-4 ovarian, in the assay on UACC-257 melanoma, with LOX IMVI melanoma and in the assay on OVCAR-8 ovarian was more than 100 µM each time.
